Values quoted from earlier work in article PMC3582496 (PLoS Biology, 2013).

What was measured:
[1] = test system: CN
[2] = test system: CN; remark: listed apart in the source

| Compound | effect on rate of pNpp hydrolysis [1] | Km [2] | Vmax [2] |
| --- | --- | --- | --- |
| cyclosporin A [CSA] | rate increases |  |  |
| DLDVPIPGRFDRRVpSVCAE [RII phosphopeptide] |  | 26 µM | 1.7 µmol/min/mg |
| C=CC[C@@H]1/C=C(\C)C[C@H](C)C[C@H](OC)[C@H]2O[C@@](O)(C(=O)C(=O)N3CCCC[C@H]3C(=O)O[C@H](/C(C)=C/[C@@H]3CC[C@@H](O)[C@H](OC)C3)[C@H](C)[C@@H](O)CC1=O)[C@H](C)C[C@@H]2OC [FK506] | rate increases |  |  |
